Where two headings read alike, the source gives them in different places.
What was measured:
Experiment in all cases: Kinase inhibitory activity profiling of RI-962@10 µM (406 kinases, Eurofins)
Type in all cases: biochemical
[1] = biological target: panel of human kinases (kinase named in endpoint) (Homo sapiens, UniProt P27448); details: 10 µM; read-out: Activity (%), MARK3(h)
Outline: (§1)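 Radiometric filter-binding kinase assays: enzyme preincubated 15 min with compound in 8 mM MOPS pH 7.0, 0.2 mM EDTA, 250 μM peptide substrate, 10 mM magnesium acetate, 10 μM [γ-33P]-ATP. Reaction started with Mg/ATP, run 40 min at room temperature, stopped with phosphoric acid; 33P incorporation read by scintillation counting. Other kinases by similar protocols.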

[2] = biological target: panel of human kinases (kinase named in endpoint) (Homo sapiens, UniProt Q13177); details: 10 µM; read-out: Activity (%), PAK2(h)
Outline: as §1

[3] = biological target: panel of human kinases (kinase named in endpoint) (Homo sapiens, UniProt Q9UK32); details: 10 µM; read-out: Activity (%), Rsk4(h)
Outline: as §1

[4] = biological target: panel of human kinases (kinase named in endpoint) (Homo sapiens, UniProt P11802); details: 10 µM; read-out: Activity (%), CDK4/cyclinD3(h)
Outline: as §1

[5] = biological target: panel of human kinases (kinase named in endpoint) (Homo sapiens, UniProt Q9UHD2); details: 10 µM; read-out: Activity (%), TBK1(h)
Outline: as §1

[6] = biological target: panel of human kinases (kinase named in endpoint) (Homo sapiens, UniProt P49841); details: 10 µM; read-out: Activity (%), GSK3β(h)
Chain of panel of human kinases (kinase named in endpoint) (Homo sapiens, UniProt P49841) (P49841 whole entry): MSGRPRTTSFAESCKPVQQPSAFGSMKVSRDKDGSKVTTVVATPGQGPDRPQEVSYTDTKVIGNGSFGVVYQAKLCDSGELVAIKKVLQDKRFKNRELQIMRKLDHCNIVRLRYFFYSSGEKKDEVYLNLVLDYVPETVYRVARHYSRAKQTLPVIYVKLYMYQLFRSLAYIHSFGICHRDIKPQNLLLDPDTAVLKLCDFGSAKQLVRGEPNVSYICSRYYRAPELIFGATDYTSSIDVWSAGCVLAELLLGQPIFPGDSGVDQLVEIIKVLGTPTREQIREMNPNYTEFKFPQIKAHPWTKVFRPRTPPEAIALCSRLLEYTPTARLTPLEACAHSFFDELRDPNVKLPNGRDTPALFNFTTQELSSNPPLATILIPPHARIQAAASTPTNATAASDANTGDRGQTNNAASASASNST
Outline: as §1

[7] = biological target: panel of human kinases (kinase named in endpoint) (Homo sapiens, UniProt P42345); details: 10 µM
Outline: as §1

[8] = biological target: panel of human kinases (kinase named in endpoint) (Homo sapiens, UniProt Q9P2K8); details: 10 µM; read-out: Activity (%), GCN2(h)
Chain of panel of human kinases (kinase named in endpoint) (Homo sapiens, UniProt Q9P2K8) (Q9P2K8 whole entry): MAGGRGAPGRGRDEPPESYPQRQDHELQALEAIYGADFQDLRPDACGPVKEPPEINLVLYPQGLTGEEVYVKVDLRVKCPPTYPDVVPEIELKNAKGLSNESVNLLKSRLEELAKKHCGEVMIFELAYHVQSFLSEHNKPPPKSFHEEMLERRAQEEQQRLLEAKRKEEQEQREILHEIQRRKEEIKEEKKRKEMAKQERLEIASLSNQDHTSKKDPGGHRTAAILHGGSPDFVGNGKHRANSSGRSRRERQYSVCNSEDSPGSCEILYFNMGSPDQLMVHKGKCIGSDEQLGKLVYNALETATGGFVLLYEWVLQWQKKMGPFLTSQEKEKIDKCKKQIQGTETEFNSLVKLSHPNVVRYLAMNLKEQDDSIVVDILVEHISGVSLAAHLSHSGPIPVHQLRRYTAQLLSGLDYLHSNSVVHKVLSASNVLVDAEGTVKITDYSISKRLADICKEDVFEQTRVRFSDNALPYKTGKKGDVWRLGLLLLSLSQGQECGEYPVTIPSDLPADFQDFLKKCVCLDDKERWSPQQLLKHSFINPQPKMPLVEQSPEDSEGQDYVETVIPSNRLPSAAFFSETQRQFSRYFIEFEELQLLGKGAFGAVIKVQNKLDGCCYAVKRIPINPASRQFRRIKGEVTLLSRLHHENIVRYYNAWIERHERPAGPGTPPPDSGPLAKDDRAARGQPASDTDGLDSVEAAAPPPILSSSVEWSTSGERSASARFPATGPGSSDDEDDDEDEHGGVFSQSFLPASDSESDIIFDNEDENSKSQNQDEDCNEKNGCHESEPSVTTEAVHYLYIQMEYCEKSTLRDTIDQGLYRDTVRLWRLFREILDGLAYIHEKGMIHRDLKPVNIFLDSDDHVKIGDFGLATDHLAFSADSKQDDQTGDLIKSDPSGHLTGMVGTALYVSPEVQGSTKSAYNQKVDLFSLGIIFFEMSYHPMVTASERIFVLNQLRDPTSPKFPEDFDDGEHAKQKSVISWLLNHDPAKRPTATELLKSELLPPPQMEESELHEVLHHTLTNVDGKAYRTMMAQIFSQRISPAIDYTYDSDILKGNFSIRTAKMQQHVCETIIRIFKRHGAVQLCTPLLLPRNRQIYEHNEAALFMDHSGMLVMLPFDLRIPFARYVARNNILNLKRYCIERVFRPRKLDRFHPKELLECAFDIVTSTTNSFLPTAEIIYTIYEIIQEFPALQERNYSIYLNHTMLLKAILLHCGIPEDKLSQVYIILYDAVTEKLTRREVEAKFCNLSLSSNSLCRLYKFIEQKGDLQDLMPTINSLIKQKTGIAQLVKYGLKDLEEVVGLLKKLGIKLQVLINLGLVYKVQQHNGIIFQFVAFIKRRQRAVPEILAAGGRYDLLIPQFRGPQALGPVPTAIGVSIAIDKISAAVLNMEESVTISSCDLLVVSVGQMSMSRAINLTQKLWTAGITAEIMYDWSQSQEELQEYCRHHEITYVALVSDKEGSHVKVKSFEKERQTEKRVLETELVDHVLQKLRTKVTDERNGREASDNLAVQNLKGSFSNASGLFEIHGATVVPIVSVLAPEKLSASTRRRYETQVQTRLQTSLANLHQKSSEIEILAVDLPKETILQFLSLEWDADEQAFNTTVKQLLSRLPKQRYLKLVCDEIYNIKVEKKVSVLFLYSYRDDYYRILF
Outline: as §1

[9] = biological target: panel of human kinases (kinase named in endpoint) (Homo sapiens, UniProt Q15831); details: 10 µM; read-out: Activity (%), LKB1(h)
Outline: as §1

[10] = biological target: panel of human kinases (kinase named in endpoint) (Homo sapiens, UniProt O75116); details: 10 µM; read-out: Activity (%), ROCK-II(h)
Outline: as §1

[11] = biological target: panel of human kinases (kinase named in endpoint) (Homo sapiens, UniProt Q16539); details: 10 µM; read-out: Activity (%), SAPK2a(h)
Outline: as §1

[12] = biological target: panel of human kinases (kinase named in endpoint) (Homo sapiens, UniProt Q5TCY1); details: 10 µM; read-out: Activity (%), TTBK1(h)
Outline: as §1

[13] = biological target: panel of human kinases (kinase named in endpoint) (Homo sapiens, UniProt P36888, D835Y); details: 10 µM; read-out: Activity (%), Flt3(D835Y)(h)
Outline: as §1

[14] = biological target: panel of human kinases (kinase named in endpoint) (Homo sapiens, UniProt P54753); details: 10 µM; read-out: Activity (%), EphB3(h)
Outline: as §1

[15] = biological target: panel of human kinases (kinase named in endpoint) (Homo sapiens, UniProt Q9HAZ1); details: 10 µM; read-out: Activity (%), CLK4(h)
Outline: as §1

[16] = biological target: panel of human kinases (kinase named in endpoint) (Homo sapiens, UniProt P78362); details: 10 µM; read-out: Activity (%), SRPK2(h)
Outline: as §1

[17] = biological target: panel of human kinases (kinase named in endpoint) (Homo sapiens, UniProt O15111); details: 10 µM; read-out: Activity (%), IKKα(h)
Chain of panel of human kinases (kinase named in endpoint) (Homo sapiens, UniProt O15111) (O15111 whole entry): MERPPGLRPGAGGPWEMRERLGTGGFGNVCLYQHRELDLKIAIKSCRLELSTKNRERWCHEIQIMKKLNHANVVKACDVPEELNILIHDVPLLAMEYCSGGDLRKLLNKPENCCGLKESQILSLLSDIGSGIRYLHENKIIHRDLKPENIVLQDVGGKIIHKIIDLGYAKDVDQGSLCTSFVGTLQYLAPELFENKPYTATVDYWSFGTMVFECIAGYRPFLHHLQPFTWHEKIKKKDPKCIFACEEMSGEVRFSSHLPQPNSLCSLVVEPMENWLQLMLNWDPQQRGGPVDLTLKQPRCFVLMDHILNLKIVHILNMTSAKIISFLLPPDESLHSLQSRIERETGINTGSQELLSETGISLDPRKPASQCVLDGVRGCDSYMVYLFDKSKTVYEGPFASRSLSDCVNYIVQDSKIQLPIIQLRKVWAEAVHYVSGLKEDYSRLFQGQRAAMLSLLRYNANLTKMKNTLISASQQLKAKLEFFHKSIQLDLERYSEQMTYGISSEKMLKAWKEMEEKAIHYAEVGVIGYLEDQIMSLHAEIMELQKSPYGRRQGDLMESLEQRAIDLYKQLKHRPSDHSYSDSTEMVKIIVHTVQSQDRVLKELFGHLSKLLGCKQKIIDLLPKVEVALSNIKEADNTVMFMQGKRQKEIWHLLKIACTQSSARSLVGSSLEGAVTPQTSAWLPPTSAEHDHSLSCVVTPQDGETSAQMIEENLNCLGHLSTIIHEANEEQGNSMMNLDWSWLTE
Outline: as §1

[18] = biological target: panel of human kinases (kinase named in endpoint) (Homo sapiens, UniProt O14965); details: 10 µM; read-out: Activity (%), Aurora-A(h)
Outline: as §1

[19] = biological target: panel of human kinases (kinase named in endpoint) (Homo sapiens, UniProt P51617); details: 10 µM; read-out: Activity (%), IRAK1(h)
Outline: as §1

[20] = biological target: panel of human kinases (kinase named in endpoint) (Homo sapiens, UniProt O96013); details: 10 µM; read-out: Activity (%), PAK4(h)
Chain of panel of human kinases (kinase named in endpoint) (Homo sapiens, UniProt O96013) (O96013 whole entry): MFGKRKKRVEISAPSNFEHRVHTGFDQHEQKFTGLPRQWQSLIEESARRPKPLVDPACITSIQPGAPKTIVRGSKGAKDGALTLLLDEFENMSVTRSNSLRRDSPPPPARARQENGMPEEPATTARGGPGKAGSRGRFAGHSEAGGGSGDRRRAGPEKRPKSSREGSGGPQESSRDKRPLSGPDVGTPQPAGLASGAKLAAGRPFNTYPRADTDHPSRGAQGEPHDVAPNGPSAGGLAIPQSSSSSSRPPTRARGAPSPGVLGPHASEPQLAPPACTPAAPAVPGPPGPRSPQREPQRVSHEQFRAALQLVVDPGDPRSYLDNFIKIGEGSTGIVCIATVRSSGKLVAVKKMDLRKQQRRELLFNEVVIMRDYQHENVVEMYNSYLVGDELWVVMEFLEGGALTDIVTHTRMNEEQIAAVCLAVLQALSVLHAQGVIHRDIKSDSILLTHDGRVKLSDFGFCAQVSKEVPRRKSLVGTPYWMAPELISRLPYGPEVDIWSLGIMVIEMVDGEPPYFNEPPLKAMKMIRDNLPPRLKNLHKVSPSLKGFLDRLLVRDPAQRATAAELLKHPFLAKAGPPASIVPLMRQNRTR
Outline: as §1

[21] = biological target: panel of human kinases (kinase named in endpoint) (Homo sapiens, UniProt P45984); details: 10 µM; read-out: Activity (%), JNK2α2(h)
Outline: as §1

[22] = biological target: panel of human kinases (kinase named in endpoint) (Homo sapiens, UniProt Q9Y6E0); details: 10 µM; read-out: Activity (%), MST3(h)
Outline: as §1

[23] = biological target: panel of human kinases (kinase named in endpoint) (Homo sapiens, UniProt P49674); details: 10 µM; read-out: Activity (%), CK1ε(h)
Chain of panel of human kinases (kinase named in endpoint) (Homo sapiens, UniProt P49674) (P49674 whole entry): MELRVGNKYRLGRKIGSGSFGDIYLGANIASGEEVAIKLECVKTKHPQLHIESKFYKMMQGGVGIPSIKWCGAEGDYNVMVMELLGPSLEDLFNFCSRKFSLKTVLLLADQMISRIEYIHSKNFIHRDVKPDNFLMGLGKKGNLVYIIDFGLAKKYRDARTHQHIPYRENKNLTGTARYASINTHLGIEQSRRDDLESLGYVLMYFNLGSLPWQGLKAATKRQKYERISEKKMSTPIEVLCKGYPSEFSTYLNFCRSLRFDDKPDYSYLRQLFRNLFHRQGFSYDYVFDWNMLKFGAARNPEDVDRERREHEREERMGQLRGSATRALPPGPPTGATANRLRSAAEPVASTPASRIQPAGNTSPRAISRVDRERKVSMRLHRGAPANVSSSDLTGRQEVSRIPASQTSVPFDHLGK
Outline: as §1

[24] = biological target: panel of human kinases (kinase named in endpoint) (Homo sapiens, UniProt O60331); details: 10 µM; read-out: Activity (%), PIP5K1g(h)
Chain of panel of human kinases (kinase named in endpoint) (Homo sapiens, UniProt O60331) (O60331 whole entry): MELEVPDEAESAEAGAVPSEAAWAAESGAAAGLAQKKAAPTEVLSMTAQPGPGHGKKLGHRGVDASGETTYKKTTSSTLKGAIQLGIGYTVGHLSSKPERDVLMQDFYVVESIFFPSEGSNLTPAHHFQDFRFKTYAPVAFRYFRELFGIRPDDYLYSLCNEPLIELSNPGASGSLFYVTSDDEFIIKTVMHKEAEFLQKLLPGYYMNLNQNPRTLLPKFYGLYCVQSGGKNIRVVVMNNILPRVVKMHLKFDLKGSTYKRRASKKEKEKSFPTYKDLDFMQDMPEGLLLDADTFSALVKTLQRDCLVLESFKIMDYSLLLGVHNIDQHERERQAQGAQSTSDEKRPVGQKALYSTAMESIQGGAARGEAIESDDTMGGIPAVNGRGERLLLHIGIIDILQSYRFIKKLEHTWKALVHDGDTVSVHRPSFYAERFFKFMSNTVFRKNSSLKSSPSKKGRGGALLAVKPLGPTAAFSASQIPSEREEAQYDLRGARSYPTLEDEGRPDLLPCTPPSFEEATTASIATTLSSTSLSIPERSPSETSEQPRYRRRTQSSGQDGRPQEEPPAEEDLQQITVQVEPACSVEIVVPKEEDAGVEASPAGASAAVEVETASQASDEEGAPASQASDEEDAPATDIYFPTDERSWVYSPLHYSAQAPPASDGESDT
Outline: as §1

[25] = biological target: panel of human kinases (kinase named in endpoint) (Homo sapiens, UniProt Q9BXA7); details: 10 µM; read-out: Activity (%), TSSK1(h)
Chain of panel of human kinases (kinase named in endpoint) (Homo sapiens, UniProt Q9BXA7) (Q9BXA7 whole entry): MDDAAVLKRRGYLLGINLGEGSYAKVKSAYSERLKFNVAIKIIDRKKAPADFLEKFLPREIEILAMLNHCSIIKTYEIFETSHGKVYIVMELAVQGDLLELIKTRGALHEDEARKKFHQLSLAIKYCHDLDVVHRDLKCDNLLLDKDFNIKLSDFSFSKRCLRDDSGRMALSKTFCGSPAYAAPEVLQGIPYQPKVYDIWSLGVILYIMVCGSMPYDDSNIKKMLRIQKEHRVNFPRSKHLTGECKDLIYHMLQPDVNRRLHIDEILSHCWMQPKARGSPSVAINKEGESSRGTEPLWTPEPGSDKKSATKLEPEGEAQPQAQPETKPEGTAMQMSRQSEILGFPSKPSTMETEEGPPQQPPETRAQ
Outline: as §1

[26] = biological target: panel of human kinases (kinase named in endpoint) (Homo sapiens, UniProt P36897); details: 10 µM; read-out: Activity (%), TGFBR1(h)
Outline: as §1

In the case of `CC(C)C(=O)Nc1nc2cc(-c3ccc4c(c3)c(C(=O)NC(C)c3ccccc3)cn4C)ccn2n1` (stereo not drawn) [RI-962], the activity at 10 µM [1] is reported as 84%, the activity at 10 µM [2] is reported as 84% and the activity at 10 µM [3] is reported as 61%. The activity at 10 µM [4] was 75%, the activity at 10 µM [5] was 90% and the activity at 10 µM [6] was 111%. For the same compound, the activity at 10 µM ([7]; read-out: Activity (%), mTOR(h)) was 87%, the activity at 10 µM ([7]; read-out: Activity (%), mTOR/FKBP12(h)) was 98% and the activity at 10 µM [8] was 76%. The activity at 10 µM [9] was 105%, the activity at 10 µM [10] was 90% and the activity at 10 µM [11] was 118%. It also gave an activity at 10 µM [12] of 92%, an activity at 10 µM [13] of 88% and an activity at 10 µM [14] of 77%. It also gave an activity at 10 µM [15] of 103%, an activity at 10 µM [16] of 100% and an activity at 10 µM [17] of 101%. For the same compound, the activity at 10 µM [18] was 95%, the activity at 10 µM [19] was 103% and the activity at 10 µM [20] was 92%. For the same compound, the activity at 10 µM [21] was 71%, the activity at 10 µM [22] was 149% and the activity at 10 µM [23] was 83%. For the same compound, the activity at 10 µM [24] was 98%, the activity at 10 µM [25] was 84% and the activity at 10 µM [26] was 98%.

— article PMC9653409, “Generative deep learning enables the discovery of a potent and selective RIPK1 inhibitor” (Nature Communications, 2022)
